# Data as given in patent US20040053822A1, “Inducing cellular immune responses to mage2/3 using peptide and nucleic acid compositions” (priority 2002, published 2004).
# Tests used:
# [1] = biological target: HLA-A*0206 (Homo sapiens, UniProt P04439, D140Y/D185E/D98H/E176V/E277Q/F33Y/G131W/G231S/I119V/I121R/I166T/I218V/L300P/L318F/N151K/N90K/P208A/P217A/Q86G/Q94H/R138H/R169H/T345S); assay: Purified HLA class I peptide binding assay, A*0206; details: binding affinity, A2 supermotif peptides and analogs
# [2] = biological target: HLA-A*6802 (Homo sapiens, UniProt P04439, A269V/D140Y/D185E/E176V/E277Q/E87N/F33Y/G231S/I121R/I166T/I218V/L180W/L300P/L318F/N151K/P208A/P217A/Q86R/R138H/R169H/S129P/T345S/V36M); assay: Purified HLA class I peptide binding assay, A*6802; details: binding affinity, A2 supermotif peptides and analogs
# [3] = biological target: HLA-A*0202 (Homo sapiens, UniProt P04439, D140Y/D185E/D98H/E176V/E277Q/G131W/G231S/I119L/I121R/I166T/I218V/L180W/L300P/L318F/N151K/N90K/P208A/P217A/Q67R/Q86G/Q94H/R138H/R169H/T345S); assay: Purified HLA class I peptide binding assay, A*0202; details: binding affinity, A2 supermotif peptides and analogs
# [4] = biological target: HLA-A*0201 (Homo sapiens, UniProt P04439, D140Y/D185E/D98H/E176V/E277Q/G131W/G231S/I119V/I121R/I166T/I218V/L300P/L318F/N151K/N90K/P208A/P217A/Q86G/Q94H/R138H/R169H/T345S); assay: Purified HLA class I peptide binding assay, A*0201; details: binding affinity, A2 supermotif peptides and analogs
# [5] = system: 0.221A2.1 cell line (peptide-loaded target); assay: Primary CTL induction from normal donor PBMC, 51Cr release on peptide-pulsed targets; format: cell-based, human
# Protocol: (§1) The melanoma cells were treated with 100 U/ml IFNγ (Genzyme) for 48 hours at 37° C. before use as targets in the ^51Cr release and in situ IFNγ assays.
# The monocytes were purified by plating 10×10^6 PBMC/well in a 6-well plate. After 2 hours at 37° C., the non-adherent cells were removed by gently shaking the plates and aspirating the supernatants. The wells were washed a total of three times with 3 ml RPMI to remove most of the non-adherent and loosely adherent cells. Three ml of complete medium containing 50 ng/ml of GM-CSF and 1,000 U/ml of IL4 were then added to each well. DC were used for CTL induction cultures following 7 days of culture.
# Induction of CTL with DC and Peptide: CD8+ T-cells were isolated by positive selection with Dynal immunomagnetic beads (Dynabeads® M-450) and the detacha-bead® reagent. Typically about 200-250×10^6 PBMC were processed to obtain 24×10^6 CD8^+ T-cells (enough for a 48-well plate culture). Briefly, the PBMCs were thawed in RPMI with 30 μg/ml DNAse, washed once with PBS containing 1% human AB serum and resuspended in PBS/1% AB serum at a concentration of 20×10^6 cells/ml. The magnetic beads were washed 3 times with PBS/AB serum, added to the cells (140 μl beads/20×10^6 cells) and incubated for 1 hour at 4° C. with continuous mixing. The beads and cells were washed 4× with PBS/AB serum to remove the nonadherent cells and resuspended at 100×10^6 cells/ml (based on the original cell number) in PBS/AB serum containing 100 μ/ml detacha-bead® reagent and 30 μg/ml DNAse. The mixture is incubated for 1 hour at room temperature with continuous mixing. The beads were washed again with PBS/AB/DNAse to collect the CD8+ T-cells. The DC were collected and centrifuged at 1300 rpm for 5-7 minutes, washed once with PBS with 1% BSA, counted and pulsed with 40 μg/ml of peptide at a cell concentration of 1-2×10^6/ml in the presence of 3 μg/ml β2- microglobulin for 4 hours at 20° C. The DC were then irradiated (4,200 rads), washed 1 time with medium and counted again.
# Setting up induction cultures: 0.25 ml cytokine-generated DC (@1×10^5 cells/ml) were co-cultured with 0.25 ml of CD8+ T-cells (@2×10^6 cell/ml) in each well of a 48-well plate in the presence of 10 ng/ml of IL-7. rHuman IL10 was added the next day at a final concentration of 10 ng/ml and rhuman IL2 was added 48 hours later at 10 IU/ml.
# Restimulation of the induction cultures with peptide-pulsed adherent cells: Seven and fourteen days after the primary induction the cells were restimulated with peptide-pulsed adherent cells. The PBMCS were thawed and washed twice with RPMI and DNAse. The cells were resuspended at 5×10^6 cells/ml and irradiated at ˜4200 rads. The PBMCs were plated at 2×10^6 in 0.5 ml complete medium per well and incubated for 2 hours at 37° C. The plates were washed twice with RPMI by tapping the plate gently to remove the nonadherent cells and the adherent cells pulsed with 10 μg/ml of peptide in the presence of 3 μg/ml β2 microglobulin in 0.25 ml RPMI/5% AB per well for 2 hours at 37° C. Peptide solution from each well was aspirated and the wells were washed once with RPMI. Most of the media was aspirated from the induction cultures (CD8+ cells) and brought to 0.5 ml with fresh media. The cells were then transferred to the wells containing the peptide-pulsed adherent cells. Twenty four hours later rhuman IL10 was added at a final concentration of 10 ng/ml and rhuman IL2 was added the next day and again 2-3 days later at 50 IU/ml (Tsai et al., Critical Reviews in Immunology 18(l-2):65-75, 1998). Seven days later the cultures were assayed for CTL activity in a ^51Cr release assay. In some experiments the cultures were assayed for peptide-specific recognition in the in situ IFNγ ELISA at the time of the second restimulation followed by assay of endogenous recognition 7 days later. After expansion, activity was measured in both assays for a side by side comparison. […]
# [6] = system: melanoma cell lines (624 mel and 888 mel); assay: Primary CTL induction, 51Cr release on tumor targets (endogenous recognition); format: cell-based, human; details: number of donors positive over total tested; tumor targets
# Protocol: as §1
# Restimulation of the induction cultures with peptide-pulsed adherent cells: Seven and fourteen days after the primary induction the cells were restimulated with peptide-pulsed adherent cells. The PBMCS were thawed and washed twice with RPMI and DNAse. The cells were resuspended at 5×10^6 cells/ml and irradiated at ˜4200 rads. The PBMCs were plated at 2×10^6 in 0.5 ml complete medium per well and incubated for 2 hours at 37° C. The plates were washed twice with RPMI by tapping the plate gently to remove the nonadherent cells and the adherent cells pulsed with 10 μg/ml of peptide in the presence of 3 μg/ml β2 microglobulin in 0.25 ml RPMI/5% AB per well for 2 hours at 37° C. Peptide solution from each well was aspirated and the wells were washed once with RPMI. Most of the media was aspirated from the induction cultures (CD8+ cells) and brought to 0.5 ml with fresh media. The cells were then transferred to the wells containing the peptide-pulsed adherent cells. Twenty four hours later rhuman IL10 was added at a final concentration of 10 ng/ml and rhuman IL2 was added the next day and again 2-3 days later at 50 IU/ml (Tsai et al., Critical Reviews in Immunology 18(l-2):65-75, 1998). Seven days later the cultures were assayed for CTL activity in a ^51Cr release assay. In some experiments the cultures were assayed for peptide-specific recognition in the in situ IFNγ ELISA at the time of the second restimulation followed by assay of endogenous recognition 7 days later. After expansion, activity was measured in both assays for a side by side comparison.
# Seven days after the second restimulation, cytotoxicity was determined in a standard (5 hr) ^51Cr release assay by assaying individual wells at a single E:T. Peptide-pulsed targets were prepared by incubating the cells with 10 μg/ml peptide overnight at 37° C.
# Adherent target cells were removed from culture flasks with trypsin-EDTA. Target cells were labelled with 200 μCi of ^51Cr sodium chromate (Dupont, Wilmington, Del.) for 1 hour at 37° C. […] Target cells.(100 μl) and 100 μl of effectors were plated in 96 well round-bottom plates and incubated for 5 hours at 37° C. At that time, 100 μl of supernatant were collected from each well and percent lysis was determined according to the formula: [(cpm of the test sample−cpm of the spontaneous ^51Cr release sample)/(cpm of the maximal ^51Cr release sample−cpm of the spontaneous ^51Cr release sample)]×100. Maximum and spontaneous release were determined by incubating the labelled targets with 1% Trition X-100 and media alone, respectively.
# CTL Expansion. […] The cells were split if the cell concentration exceeded 1×10^6/ml and the cultures were assayed between days 13 and 15 at E:T ratios of 30, 10, 3 and 1:1 in the ^51Cr release assay or at 1×10^6/ml in the in situ IFNγ assay using the same targets as before the expansion.
# The A2-supermotif cross-reactive binding peptides that were selected for further evaluation were tested in the cellular assay for the ability to induce peptide-specific CTL in normal individuals.
# [7] = biological target: HLA-A*0203 (Homo sapiens, UniProt P04439, A173T/D140Y/D185E/D98H/E277Q/G131W/G231S/I119V/I121R/I166T/I218V/L180W/L300P/L318F/N151K/N90K/P208A/P217A/Q86G/Q94H/R138H/R169H/T345S); assay: Purified HLA class I peptide binding assay, A*0203; details: binding affinity, A2 supermotif peptides and analogs
# [8] = number of donors positive over the total number of donors tested
IC50 [1],IC50 [2],IC50 [3],IC50 [4],IC50 [7],Compound,"CTL Wild-type [5, 8]",CTL Tumor [6],CTL Wild-type ([5]; Number of donors yielding a positive response/total tested)
26 nM,286 nM,6.7 nM,24 nM,–,CSCC[C@H](NC(=O)[C@@H](N)CCCCN)C(=O)N[C@@H](C)C(=O)N[C@@H](CCC(=O)O)C(=O)N[C@@H](CC(C)C)C(=O)N[C@H](C(=O)N[C@@H](Cc1c[nH]cn1)C(=O)N[C@@H](Cc1ccccc1)C(=O)N[C@@H](CC(C)C)C(=O)O)C(C)C,–,–,–
–,–,–,–,–,CSCC[C@H](NC(=O)[C@@H](N)CCCCN)C(=O)N[C@H](C(=O)N[C@@H](CCC(=O)O)C(=O)N[C@@H](CC(C)C)C(=O)N[C@H](C(=O)N[C@@H](Cc1c[nH]cn1)C(=O)N[C@@H](Cc1ccccc1)C(=O)N[C@@H](CC(C)C)C(=O)N[C@@H](CC(C)C)C(=O)N[C@@H](CC(C)C)C(=O)O)C(C)C)C(C)C,1/1,0/1^,–
–,400 nM,6 nM,20 nM,5.9 nM,CC(C)C[C@H](NC(=O)[C@H](Cc1ccccc1)NC(=O)[C@H](Cc1c[nH]cn1)NC(=O)[C@@H](NC(=O)[C@H](CC(C)C)NC(=O)[C@H](CCC(=O)O)NC(=O)[C@H](C)NC(=O)[C@H](CC(C)C)NC(=O)[C@@H](N)CCCCN)C(C)C)C(=O)O,–,–,–
–,–,–,–,–,CSCC[C@H](NC(=O)[C@@H](N)CCCCN)C(=O)N[C@H](C(=O)N[C@@H](CCC(=O)O)C(=O)N[C@@H](CC(C)C)C(=O)N[C@H](C(=O)N[C@@H](Cc1c[nH]cn1)C(=O)N[C@@H](Cc1ccccc1)C(=O)N[C@@H](CC(C)C)C(=O)O)C(C)C)C(C)C,1/1,0/1^,–
39 nM,170 nM,–,26 nM,–,CSCC[C@H](NC(=O)[C@@H](N)CCCCN)C(=O)N[C@@H](C)C(=O)N[C@@H](CCC(=O)O)C(=O)N[C@@H](CC(C)C)C(=O)N[C@H](C(=O)N[C@@H](Cc1c[nH]cn1)C(=O)N[C@@H](Cc1ccccc1)C(=O)N[C@H](C(=O)O)C(C)C)C(C)C,–,–,–
15 nM,73 nM,13 nM,–,22 nM,CC(C)C[C@H](NC(=O)[C@H](CCC(=O)O)NC(=O)[C@H](C)NC(=O)[C@H](CC(C)C)NC(=O)[C@@H](N)CCCCN)C(=O)N[C@H](C(=O)N[C@@H](Cc1c[nH]cn1)C(=O)N[C@@H](Cc1ccccc1)C(=O)N[C@H](C(=O)O)C(C)C)C(C)C,–,–,–
–,–,–,–,–,CC[C@H](C)[C@H](NC(=O)CNC(=O)[C@H](Cc1ccccc1)NC(=O)[C@@H](NC(=O)[C@@H](N)CC(C)C)C(C)C)C(=O)N[C@@H](CCC(=O)O)C(=O)N[C@H](C(=O)N[C@H](C(=O)N[C@@H](CCC(=O)O)C(=O)N[C@H](C(=O)O)C(C)C)C(C)C)C(C)C,4/4,0/3^,–
> 10000 nM,4490 nM,–,56 nM,769 nM,CC[C@H](C)[C@H](NC(=O)[C@H](Cc1ccc(O)cc1)NC(=O)[C@H](CC(C)C)NC(=O)[C@@H](N)Cc1c[nH]cn1)C(=O)N[C@@H](Cc1ccccc1)C(=O)N[C@@H](C)C(=O)N[C@H](C(=O)N[C@@H](CS)C(=O)N[C@@H](CC(C)C)C(=O)NCC(=O)N[C@@H](CC(C)C)C(=O)O)[C@@H](C)O,–,–,–
–,> 10000 nM,642 nM,167 nM,175 nM,CC[C@H](C)[C@H](NC(=O)[C@@H](N)CCCCN)C(=O)N[C@@H](Cc1c[nH]c2ccccc12)C(=O)N[C@@H](CCC(=O)O)C(=O)N[C@@H](CCC(=O)O)C(=O)N[C@@H](CC(C)C)C(=O)N[C@@H](CO)C(=O)N[C@@H](CCSC)C(=O)N[C@@H](CC(C)C)C(=O)O,–,–,–
–,–,–,–,–,CC[C@H](C)[C@H](NC(=O)[C@@H](N)CCCCN)C(=O)N[C@@H](Cc1c[nH]c2ccccc12)C(=O)N[C@@H](CCC(=O)O)C(=O)N[C@@H](CCC(=O)O)C(=O)N[C@@H](CC(C)C)C(=O)N[C@@H](CO)C(=O)N[C@H](C(=O)N[C@@H](CC(C)C)C(=O)O)C(C)C,3/4,0/3^,3/4
